Test systems include SK-MEL-5 melanoma; CAKI-1 renal; SK-OV-3 ovarian; SF-268 CNS; HL-60(TB) leukemia; NCI-H460 lung; OVCAR-5 ovarian; M14 melanoma; PC-3 prostate; BT-549 breast.
Holding throughout (assay): inhibition of tumour cell growth, NCI panel, 48 h

SMILES strings stand for the structures.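 Method: 48-hour compound exposure of cells in 96-well plates, five concentrations, linear interpolation of endpoints. GI50 marks 50% less growth. TGI: concentration producing complete growth inhibition.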 Some results are limits rather than exact numbers.

For the compound `OC1C2CCC1C1C3C=CC(C3)C21` (stereo not given), the TGI in the assay with SK-MEL-5 melanoma, in the assay on CAKI-1 renal, in the assay with SK-OV-3 ovarian, in the assay on SF-268 CNS, with HL-60(TB) leukemia and in the assay on NCI-H460 lung was above 100 µM throughout. Moreover, the TGI in the assay on OVCAR-5 ovarian and with M14 melanoma was above 100 µM each time.

Regarding `c1ccc2c(c1)[nH]c1c2nc2ncccn21`, the TGI with SK-MEL-5 melanoma, with CAKI-1 renal, in the assay with SK-OV-3 ovarian, with SF-268 CNS, in the assay on NCI-H460 lung and with OVCAR-5 ovarian was above 100 µM in each case. The same compound displayed a TGI with M14 melanoma above 100 µM.

Take `CC1OC(OC2C(CO)OC(O[C@H]3CC[C@@]4(C)C(=CC[C@H]5[C@@H]6C[C@@H]7O[C@]8(CC[C@@H](C)CN8)[C@@H](C)[C@@H]7[C@@]6(C)CC[C@@H]54)C3)C(O)C2O)C(O)C(O)C1O` (stereo not given in full): the TGI with SK-MEL-5 melanoma, in the assay on CAKI-1 renal, in the assay with SK-OV-3 ovarian, in the assay with SF-268 CNS, in the assay with HL-60(TB) leukemia and in the assay on NCI-H460 lung was above 100 µM in each case. In addition, the TGI with OVCAR-5 ovarian and with M14 melanoma was above 100 µM each time.

As to `O=C(NCC(O)CNC(=O)C(F)(F)F)C(F)(F)F`, the TGI with SK-MEL-5 melanoma, in the assay with CAKI-1 renal, in the assay on SK-OV-3 ovarian, in the assay on SF-268 CNS, in the assay with HL-60(TB) leukemia and with NCI-H460 lung was above 100 µM throughout. Moreover, the TGI with OVCAR-5 ovarian and with M14 melanoma was above 100 µM throughout.

As for `CC(C)(C)OC(=O)NC(CO)c1cccc(OCc2ccccc2)c1` (stereo not given), the TGI was above 100 µM with SK-MEL-5 melanoma; above 100 µM in the assay with CAKI-1 renal; above 100 µM with SK-OV-3 ovarian; above 100 µM in the assay on SF-268 CNS; 43.8 µM with HL-60(TB) leukemia; above 100 µM with NCI-H460 lung. The TGI in the assay on OVCAR-5 ovarian and with M14 melanoma was above 100 µM throughout.

For `N#C/C(=C/Sc1ccccc1)C(=O)O`, the TGI in the assay with SK-MEL-5 melanoma was above 100 µM; with CAKI-1 renal, 79.5 µM; with SK-OV-3 ovarian, above 100 µM; with SF-268 CNS, 53.7 µM; with HL-60(TB) leukemia, above 100 µM; in the assay with NCI-H460 lung, above 100 µM. In addition, the TGI in the assay with OVCAR-5 ovarian is 74.6 µM; in the assay with M14 melanoma, 57.2 µM.

With `O=C1c2ccccc2-c2c1c1c(O)cccc1n2-c1ccccc1`, the GI50 in the assay on PC-3 prostate, with SK-MEL-5 melanoma, in the assay on CAKI-1 renal, with SK-OV-3 ovarian, in the assay with SF-268 CNS and with NCI-H460 lung was above 100 µM in each case. In addition, the GI50 was above 100 µM in the assay on OVCAR-5 ovarian and 29.3 µM in the assay with M14 melanoma. Besides, the TGI with PC-3 prostate, in the assay on SK-MEL-5 melanoma, in the assay with CAKI-1 renal, in the assay with SK-OV-3 ovarian, with SF-268 CNS and with NCI-H460 lung was above 100 µM in each case. Further, the TGI in the assay with OVCAR-5 ovarian and in the assay with M14 melanoma was above 100 µM each time.

On to `O=c1oc(=O)c2oc3ccccc3oc1=2`, for which the TGI in the assay on CAKI-1 renal, in the assay with SK-OV-3 ovarian, with SF-268 CNS, with HL-60(TB) leukemia, in the assay on NCI-H460 lung and in the assay with OVCAR-5 ovarian was above 100 µM throughout. In the assay on M14 melanoma, this compound displayed a TGI above 100 µM.

As for `O=C1OC(c2ccccc2)(c2cc(Br)c(O)c(Br)c2)c2ccccc21` (stereo not given), the GI50 was 35.6 µM in the assay with PC-3 prostate; 14.5 µM with SK-MEL-5 melanoma; 29.2 µM in the assay with CAKI-1 renal; 21.4 µM in the assay with SK-OV-3 ovarian; 28.8 µM in the assay with SF-268 CNS; 22.8 µM in the assay with HL-60(TB) leukemia. Moreover, the values for the GI50 in the assay on NCI-H460 lung, in the assay on OVCAR-5 ovarian and with M14 melanoma were 19.6 µM, 31.8 µM and 18.6 µM, respectively. Further, the TGI in the assay on PC-3 prostate was above 100 µM; in the assay with SK-MEL-5 melanoma it was 30.7 µM; in the assay with CAKI-1 renal, above 100 µM; in the assay on SK-OV-3 ovarian, 53.7 µM; in the assay on SF-268 CNS, above 100 µM; in the assay on HL-60(TB) leukemia, 67.8 µM. The TGI with NCI-H460 lung was 43.9 µM; in the assay on OVCAR-5 ovarian it was above 100 µM; in the assay with M14 melanoma, 36.8 µM.

As for `NCCN1C(=O)C2C3c4ccccc4C(c4ccccc43)C2C1=O` (stereo not given), the TGI with SK-MEL-5 melanoma, in the assay on CAKI-1 renal, in the assay with SK-OV-3 ovarian, in the assay with SF-268 CNS, with HL-60(TB) leukemia and with NCI-H460 lung was above 100 µM in each case. In addition, the TGI in the assay with OVCAR-5 ovarian and with M14 melanoma was above 100 µM in each case.

Consider `C=C(CN1CCN(c2cccc(C(F)(F)F)n2)CC1)c1ccc(C(=S)Nc2ccccc2N)cc1`, for which the GI50 is 1.46 µM in the assay on SK-MEL-5 melanoma; 3.26 µM in the assay on CAKI-1 renal; 8.08 µM with SF-268 CNS; 4.4 µM in the assay with BT-549 breast; 2.29 µM in the assay with HL-60(TB) leukemia; 2.99 µM with NCI-H460 lung. In addition, the results for the GI50 in the assay with OVCAR-5 ovarian and with M14 melanoma were 3.67 µM and 3.81 µM, respectively. For the same compound, the TGI is 3.17 µM in the assay on SK-MEL-5 melanoma; above 100 µM in the assay on CAKI-1 renal; above 100 µM in the assay on SF-268 CNS; above 100 µM in the assay with BT-549 breast; 5.66 µM in the assay on HL-60(TB) leukemia; 18.8 µM in the assay with NCI-H460 lung. Also, the values for the TGI with OVCAR-5 ovarian and in the assay on M14 melanoma were above 100 µM and 41.3 µM, respectively.

In the case of `Cc1ccc(-c2nc(N3CCCNCC3)c3oc(-c4ccccc4)nc3n2)cc1`, the GI50 in the assay with PC-3 prostate was 1.57 µM; in the assay on SK-MEL-5 melanoma, 1.6 µM; in the assay on CAKI-1 renal, 1.65 µM; with SK-OV-3 ovarian it was 1.89 µM; with SF-268 CNS, 1.83 µM; in the assay with HL-60(TB) leukemia, 1.35 µM. Further, the GI50 was 1.85 µM in the assay with NCI-H460 lung, 1.9 µM in the assay on OVCAR-5 ovarian and 1.76 µM with M14 melanoma. Also, the TGI was 3 µM in the assay on PC-3 prostate; 3.03 µM in the assay with SK-MEL-5 melanoma; 3.03 µM in the assay with CAKI-1 renal; 3.31 µM in the assay on SK-OV-3 ovarian; 3.66 µM with SF-268 CNS; 3.17 µM in the assay on HL-60(TB) leukemia. In addition, the TGI in the assay with NCI-H460 lung is 3.5 µM; with OVCAR-5 ovarian, 3.38 µM; in the assay with M14 melanoma, 3.29 µM.

Values taken from PubChem BioAssay (NCI).
